Tested on: Naïve CD8+ T cells
From the text: Naïve CD8+ T cells were isolated from mouse spleen. Cells were activated at a cell density of 10^6 cells/mL using plate-bound αCD3/αCD28+100 U/mL TL2 in RPMI containing 10% FBS.

O=CO [formate]
cell size at day 1 post activation (1 mM formate in media, from 9.5 μm without formate): 10.2 μm | extent of cells showing cell surface activation markers (CD25+, CD69+) (1 mM formate, from 78% without formate): 88% | reduction of NADH concentration (formate, p<0.005): 1.8 fold | dead cells (growing CD8+ T cells, from 10% without formate): 5%
